Data taken from US20060079512A1, “Dibenzodiazepinone analogues, processes for their production and their use as pharmaceuticals” (Ecopia BioSciences, Inc., priority 2003, published 2006).

Assays:
Type in all cases: cell-based
[1] = system: HT-29, SF-268, PC-3, MDA-MB-231; experiment: Average GI50 over the four cell lines, method (b); settings: for GI50: values > 30 not considered; for anticancer activity compared with Compound 1: four cell lines
Description: (§1) Row H was filled wih medium only (150 μL, negative control-medium).

[2] = system: SF268 (CNS); experiment: In vitro cytotoxic activity (GI50), method (b), propidium iodide; settings: Homo sapiens, SF-268, 96 hrs
Description: as §1

[3] = system: PC-3 (prostate adenocarcinoma); experiment: as above; settings: 96 hrs
Description: as §1

[4] = system: MDA-MB-231 (mammary gland adenocarcinoma); experiment: as above; settings: Homo sapiens, 96 hrs
Description: as §1

[5] = system: HT-29 (colorectal carcinoma); experiment: as above; settings: Homo sapiens, 96 hrs
Description: as §1

| SMILES | GI50 [1] [µM] | GI50 [2] [µM] | GI50 [3] [µM] | GI50 [4] [µM] | GI50 [5] [µM] | anticancer activity compared with Compound 1 [1] |
| --- | --- | --- | --- | --- | --- | --- |
| CCN1c2c(O)cccc2C(=O)N(C/C=C(\C)CC/C=C(\C)CCC=C(C)C)c2cc(O)cc(O)c21 [Compound 14, 10-farnesyl-4,6,8-trihydroxy-5-ethyl-5,10-dihydro-dibenzo[b,e][1,4]diazepin-11-one] | 1.53 | 0.76 | 1.15 | 2.16 | 2.04 |  |
| CC(C)=CCCC1(C)OC1CC/C(C)=C/CN1C(=O)c2cccc(O)c2Nc2c(O)cc(O)cc21 (centres unmarked) [Compound 17, 10-(3,7,11-trimethyl-6,7-epoxydodeca-2,10-dienyl)-4,6,8-trihydroxy-5,10-dihydro-dibenzo[b,e][1,4]diazepin-11-one] | 16 | 13.4 | 18.7 | > 30 | > 30 |  |
| C/C(=C\CN1C(=O)c2cccc(O)c2Nc2c(O)cc(O)cc21)CC/C=C(\C)CCC1OC1(C)C (centres unmarked) [Compound 18] |  | 7.45 | > 30 | > 30 | > 30 |  |
| CCCN1c2c(O)cccc2C(=O)N(C/C=C(\C)CC/C=C(\C)CCC=C(C)C)c2cc(O)cc(O)c21 [Compound 63, 10-farnesyl-4,6,8-trihydroxy-5-n-propyl-5,10-dihydro-dibenzo[b,e][1,4]diazepin-11-one] | 1.74 | 0.89 | 1.25 | 2.27 | 2.57 | better anticancer activity than Compound 1 |
| CCCCN1c2c(O)cccc2C(=O)N(C/C=C(\C)CC/C=C(\C)CCC=C(C)C)c2cc(O)cc(O)c21 [Compound 64, 10-farnesyl-4,6,8-trihydroxy-5-n-butyl-5,10-dihydro-dibenzo[b,e][1,4]diazepin-11-one] | 1.4 | 0.56 | 1.14 | 1.39 | 2.5 | better anticancer activity than Compound 1 |
| CCCCCCN1c2c(O)cccc2C(=O)N(C/C=C(\C)CC/C=C(\C)CCC=C(C)C)c2cc(O)cc(O)c21 [Compound 67, 10-farnesyl-4,6,8-trihydroxy-5-n-hexyl-5,10-dihydro-dibenzo[b,e][1,4]diazepin-11-one] | 1.55 | 0.53 | 1.33 | 1.92 | 2.44 | better anticancer activity than Compound 1 |
| CCC(C)N1c2c(O)cccc2C(=O)N(C/C=C(\C)CC/C=C(\C)CCC=C(C)C)c2cc(O)cc(O)c21 (centres unmarked) [Compound 77, 10-Farnesyl-4,6,8-trihydroxy-5-sec-butyl-5,10-dihydro-dibenzo[b,e][1,4]diazepin-11-one] | 9.98 | 3.31 | 17.1 | 5.62 | 13.9 |  |
| CC(C)CCCC(C)CCCC(C)CCN1C(=O)c2cccc(O)c2N(C)c2c(O)cc(O)cc21 (centres unmarked) [Compound 78, 10-(3,7,11-trimethyldodecyl)-4,6,8-trihydroxy-5-methyl-5,10-dihydro-dibenzo[b,e][1,4]diazepin-11-one] | 0.21 | 0.07 | 0.23 | 0.24 | 0.29 | better anticancer activity than Compound 1 |
| COC(C)(CCC=C(C)C)CCC/C(C)=C/CN1C(=O)c2cccc(O)c2N(C)c2c(O)cc(O)cc21 (centres unmarked) [Compound 80, 10-(7-methoxy-3,7,11-trimethyldodeca-2,10-dienyl)-4,6,8-trihydroxy-5-methyl-5,10-dihydro-dibenzo[b,e][1,4]diazepin-11-one] | 1.14 | 0.33 | 1.8 | 1.02 | 1.43 | better anticancer activity than Compound 1 |
| COC(C)(C)CCC/C(C)=C/CC/C(C)=C/CN1C(=O)c2cccc(O)c2Nc2c(O)cc(O)cc21 [Compound 82, 10-(11-methoxy-3,7,11-trimethyl-2,6-dodecadienyl)-4,6,8-trihydroxy-5,10-dihydro-dibenzo[b,e][1,4]diazepin-11-one] | 13.2 | 4.75 | 13.4 | 11 | 23.6 |  |
| COC(C)(CCC=C(C)C)CCC/C(C)=C/CN1C(=O)c2cccc(O)c2Nc2c(O)cc(O)cc21 (centres unmarked) [Compound 83] | 12.3 | 9.74 | 13.2 | 6.71 | 19.6 |  |
| COC(C)(C)CCCC(C)(CCC/C(C)=C/CN1C(=O)c2cccc(O)c2Nc2c(O)cc(O)cc21)OC (centres unmarked) [Compound 84, 10-(7,11-dimethoxy-3,7,11-trimethyl-2-dodecenyl)-4,6,8-trihydroxy-5,10-dihydro-dibenzo[b,e][1,4]diazepin-11-one] | 16.2 | 3.49 | 16.4 | 23.5 | 21.5 |  |
| CCN1c2c(O)cccc2C(=O)N(C/C=C(\C)CC/C=C(\C)CCCC(C)(C)OC)c2cc(O)cc(O)c21 [Compound 85, 10-(11-methoxy-3,7,11-trimethyl-2,6-dodecadienyl)-4,6,8-trihydroxy-5-ethyl-5,10-dihydro-dibenzo[b,e][1,4]diazepin-11-one] | 1.72 | 1.73 | 1.08 | 2.19 | 1.89 | better anticancer activity than Compound 1 |
| CCN1c2c(O)cccc2C(=O)N(CC=C(C)CCCC(C)(CCCC(C)(C)OC)OC)c2cc(O)cc(O)c21 (centres unmarked) [Compound 87, 10-(7,11-dimethoxy-3,7,11-trimethyl-2-dodecenyl)-4,6,8-trihydroxy-5-ethyl-5,10-dihydro-dibenzo[b,e][1,4]diazepin-11-one] | 1.63 | 0.91 | 1.39 | 2.4 | 1.83 | better anticancer activity than Compound 1 |
| CC(C)=CCCC(C)(O)CCC/C(C)=C/CN1C(=O)c2cccc(O)c2Nc2c(O)cc(O)cc21 (centres unmarked) [Compound 89, 10-(7-hydroxy-3,7,11-trimethyldodeca-2,10-dienyl)-4,6,8-trihydroxy-5,10-dihydro-dibenzo[b,e][1,4]diazepin-11-one] | 17.5 | 13.7 | 13.5 | 25.3 | > 30 |  |
| CC(=O)NC(C)(CCC=C(C)C)CCC/C(C)=C/CN1C(=O)c2cccc(O)c2Nc2c(O)cc(O)cc21 (centres unmarked) [Compound 92, 10-(7-acetamido-3,7,11-trimethyldodeca-2,10-dienyl)-4,6,8-trihydroxy-5,10-dihydro-dibenzo[b,e][1,4]diazepin-11-one] | 13.7 | 13.5 | 16.6 | 11.1 | > 30 |  |
| CC(C)=CCC/C(C)=C/CC/C(C)=C/CN1C(=O)c2cccc(O)c2Nc2c1cc(O)c(Br)c2O [Compound 97, 10-(farnesyl)-7-bromo-4,6,8-trihydroxy-5,10-dihydro-dibenzo[b,e][1,4]diazepin-11-one] | 1.82 | 2.04 | 1.19 | 2.02 | 2.02 | generally more active than Compound 1 |
